{"source": "patent US20260097111A1", "about": "“ETHER LIPIDS FOR HYPERACTIVATION OF MAMMALIAN DENDRITIC CELLS” (priority 2022, published 2026)", "tested_on": "human monocyte-derived dendritic cells (moDCs)", "experiment": "IL-1β secretion by human moDCs treated with lipid and R848", "format": "cell-based", "details": "for IL-1β secretion / IL-1β secretion, dependence on the NLRP3 inflammasome: human moDCs; for IL-1β secretion, dependence on the NLRP3 inflammasome: R848 + lipid with or without MCC950, one day, FIG. 3B", "note": "Entries after “also recorded” stand apart in the source; their conditions may differ."}
{"smiles": "CCCCCCCCCCCCCCCCCCCCCCOC[C@@H](O)COP(=O)(O)O", "note": "[Compound 2, 1-docosyl-sn-glycerol-3-phosphate]", "values": [{"measurement": "hyperactivation of human dendritic cells", "setting": "41.25 μM lipid with R848 (Compound 1 also 20.6 μM)", "value": "hyperactivating lipids; also recorded: hyperactivated dendritic cells"}, {"measurement": "IL-1β secretion", "setting": "41.25 μM lipid with R848, FIG. 17", "value": "significant increase in IL-1β"}, {"measurement": "IL-1β secretion", "setting": "41.3 uM lipid with R848, FIG. 11", "value": "robustly induced IL-113 secretion"}, {"measurement": "IL-1β secretion", "setting": "24 hours, lipid (equimolar, in 0.5% KP407) with R848, FIG. 1B, listed as DGP", "value": "IL-1β was secreted to a greater extent than 22:0 lyso PC; also recorded: more potent hyperactivator compared to DGPC (Compound 1) and 22:0 lyso PC"}, {"measurement": "IL-1β secretion", "setting": "24 hours, lipid in 4% KP407 with R848, FIG. 2B", "value": "produced significantly more IL-1β"}, {"measurement": "IL-1β secretion, dependence on the NLRP3 inflammasome", "value": "depend on the NLRP3 inflammasome for IL-1β secretion"}]}
{"smiles": "CC(C)(O)c1coc(S(=O)(=O)NC(=O)Nc2c3c(cc4c2CCC4)CCC3)c1", "note": "[MCC950, reference compound]", "values": [{"measurement": "IL-1β secretion, dependence on the NLRP3 inflammasome", "value": "diminished the IL-1β output"}]}
